Source: patent US12180252B2, “Peptide derived from PEP27 peptide and uses thereof” (priority 2021, dated 2024)
In brackets after ≈: the same amount, converted by molar mass. Several values for one entry are separate records, joined by “and”; a condition that tells them apart may be missing. Identical values can stand only once. Where a SMILES comes first, the peptide text is derived from it.

Legend:
[1] = test system: E. coli and Staphylococcus aureus cells; experiment: Scanning electron microscope analysis of bacterial membrane; format: cell-based, Escherichia coli; conditions: at MIC, 37° C., 1 hour
Protocol: In order to confirm whether the synthetic peptides of the present invention prepared by the method of above 1 would damage the bacterial cell membrane, it was investigated through a scanning electron microscope.
As a control, a strain not treated with peptide was used. After incubation, the cells were recovered, treated with 2.5% glutaraldehyde at 4° C. for 18 hours, and washed twice with PBS buffer solution. The fixed cells were dehydrated for 10 minutes using 100% ethanol and diluted ethanol (50%, 70%, 90% and 100%) in sequential order, and then the samples were dried and coated with platinum, followed by observation through a low vacuum scanning electron microscope.

E. coli ATCC 25922 = experiment: Cytoplasmic membrane depolarization (DiSC3-5); format: cell-based, Escherichia coli; conditions: 4×MIC
Protocol: We also used E. coli cells and the membrane potential-sensitive cyanine dye 3,3′-dipropylthiadicarbocyanine iodide (DiSC3-5) to test the ability of PEP27 and PEP27-2 to depolarize Gram-negative bacterial membranes (FIG. 15B to FIG. 15E).
Depolarization of the cytoplasmic membrane by the peptides was measured using the membrane potential-sensitive dye DiSC3-5 (Merck KGaA, n=4 per condition) with intact E. coli cells as previously described. 66 Mid-log-phase E. coli ATCC 25922 cells were washed with 5 mM HEPES buffer containing 20 mM glucose and resuspended to an OD600 of 0.05 in 5 mM HEPES buffer containing 20 mM glucose and 0.1 M KCl. The cell suspension was incubated with 1 μM DiSC3-5 for 1 h. […] Fluorescence was measured at excitation and emission wavelengths of 622 and 670 nm, respectively.
When the bacterial cytoplasmic membrane is disrupted, the membrane potential dissipates E. coli, and DiSC3-5 is released into the culture medium, resulting in a fluorescence increase. After stabilization for 10 min by treatment with DiSC3-5, AMPs were added, and the plasma membrane potential of E. coli was confirmed by monitoring the change in fluorescence intensity for another 30 min.

E. coli = experiment: Flow cytometry, propidium iodide staining; format: cell-based, Escherichia coli; conditions: E. coli, flow cytometry
Protocol: In order to confirm whether the peptide prepared by the method of above 1 acts on the bacterial membrane, PEP27-2 peptide having better antimicrobial activity than the parental peptide was analyzed through flow cytometry.
Thereafter, the supernatant was removed using a centrifuge (10,000 rpm) and stained with propidium iodide (PI) at a concentration of 10 μg/ml at 4° C. for 30 minutes. Then, the unbound propidium iodide (PI) was removed using the centrifuge, and 1 ml of physiological saline (PBS) was added to remove agglomeration of the cells. Thereafter, effects of the peptide on the bacterial membrane were determined using a Bechman flow cytometer.

plasmid DNA (pRSETB) = experiment: Peptide-DNA binding by agarose gel electrophoresis; conditions: peptide/DNA ratios 0.25:1 to 4:1, 300 ng plasmid DNA
Protocol: Specifically, 300 ng of plasmid DNA (pRSETB) was reacted with the peptide by a relative ratio (reactions were performed at peptide/DNA ratios of DNA alone, 0.25:1, 0.5:1, 1:1, 1.5:1, 2:1, 3:1, 4:1, respectively) at 37° C. for 10 minutes, followed by conducting electrophoresis on a 1% agarose gel, staining the same with ethidium bromide (EtBr) and monitoring through UV.

S. aureus ATCC 25923 = experiment: Time-kill kinetics; format: cell-based, Staphylococcus aureus; conditions: at MIC, after 20 min of treatment
Protocol: Time-killing kinetics were analyzed for E. coli ATCC 25922 and S. aureus ATCC 25923 in the presence of PEP27-2 at their respective MICs. The bacterial cells were cultured overnight until they reached the exponential growth phase; they were then incubated at 37° C. for an additional 10 min from 0 min to 1 h. The total bacterial population was then stained with QUANTOM total cell staining dye, after which the stained cells were mixed with QUANTOM cell loading buffer and loaded into QUANTOM M50 Slides. The slides were centrifuged using the QUANTOM centrifuge to evenly distribute them throughout the counting chamber and ensure accurate cell counts. Intracellular fluorescence was detected using the QUANTOM Tx microbial cell counter, which captures and counts cells automatically (Logos Biosystems, Gyeonggi-do, South Korea).

[2] = test system: 11 types of strains (Staphylococcus aureus, Pseudomonas erujinosa); experiment: MIC, summary over the strains of Table 7; format: cell-based
Protocol: In order to compare the antimicrobial activity of PEP27-2, which is the peptide having the most excellent antimicrobial activity among the peptides prepared by the method of above 1, with existing antibiotics, MIC concentrations of specific antibiotics were investigated with regard to the same gram-positive bacteria (Staphylococcus aureus) and the same gram-negative bacteria (Pseudomonas erujinosa) stains. Specifically, subject strains were prepared by the method of above 2, and were treated with the antibiotics, that is, meropenem, ceftazidime, ceftriaxone or vancomycin, respectively, followed by determining MICs of the antibiotics.

S. aureus ATCC29213 = experiment: microbe, parasite or virus in culture; conditions: ATCC29213, 18 h
Outline: (§1)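 Peptide growth inhibition measured by twofold dilution against mid-log bacteria (2×10^4 cells/100 μl), 37° C, 18 hours; endpoint was absence of cell division. Meropenem, ceftazidime, ceftriaxone and vancomycin were run in parallel.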

S. aureus ATCC25923 = experiment: microbe, parasite or virus in culture; conditions: ATCC25923, 18 h
Outline: as §1

S. aureus MW2 = experiment: microbe, parasite or virus in culture; conditions: S. aureus MW2, antibiotics-tolerant; 37° C., 18 hours
Outline: as §1

P. aeruginosa ATCC27853 = experiment: microbe, parasite or virus in culture; conditions: ATCC27853, 18 h
Outline: as §1

S. aureus USA300 = experiment: microbe, parasite or virus in culture; conditions: S. aureus USA300, antibiotics-tolerant; 37° C., 18 hours
Outline: as §1

E. coli ATCC25922 = format: cell-based, Escherichia coli; conditions: ATCC25922, 18 h
E. coli CCARM1229 = format: cell-based, Escherichia coli; conditions: E. coli CCARM1229, antibiotics-tolerant; 37° C., 18 hours

In the case of `CC[C@H](C)[C@H](NC(=O)CN)C(=O)NCC(=O)N[C@@H](C)C(=O)N[C@H](C(=O)N[C@@H](CC(C)C)C(=O)N[C@@H](CCCCN)C(=O)N[C@H](C(=O)N[C@@H](CC(C)C)C(=O)N[C@H](C(=O)N[C@H](C(=O)NCC(=O)N[C@@H](CC(C)C)C(=O)N1CCC[C@H]1C(=O)N[C@@H](C)C(=O)N[C@@H](CC(C)C)C(=O)N[C@H](C(=O)N[C@@H](CO)C(=O)N[C@@H](Cc1c[nH]c2ccccc12)C(=O)N[C@H](C(=O)N[C@@H](CCCCN)C(=O)N[C@@H](CCCNC(=N)N)C(=O)N[C@@H](CCCCN)C(=O)N[C@@H](CCCNC(=N)N)C(=O)N[C@@H](CCC(N)=O)C(=O)N[C@@H](CCC(N)=O)C(N)=O)[C@@H](C)CC)[C@@H](C)CC)[C@@H](C)O)[C@@H](C)O)C(C)C)C(C)C` [Melittin, reference compound], the “bacterial cell membrane damage by SEM” value [1] was “significant membrane damage”, the “DiSC3-5 fluorescence intensity (membrane depolarization)” value (E. coli ATCC 25922) was ~140 and the “bacterial membrane destruction” value (E. coli) was “found to have cell membrane destruction ability”. The “binding to DNA (gel electrophoresis)” value (plasmid DNA (pRSETB)) was “not bound to any DNA”.
In the case of `CSCC[C@H](N)C(=O)N[C@@H](Cc1c[nH]c2ccccc12)C(=O)N[C@@H](CCCCN)C(=O)N[C@@H](Cc1c[nH]c2ccccc12)C(=O)N[C@@H](Cc1ccccc1)C(=O)N[C@@H](Cc1c[nH]cn1)C(=O)N[C@@H](CC(N)=O)C(=O)N[C@H](C(=O)N[C@@H](CC(C)C)C(=O)N[C@@H](CO)C(=O)N[C@@H](Cc1c[nH]c2ccccc12)C(=O)NCC(=O)N[C@@H](Cc1c[nH]c2ccccc12)C(=O)N[C@@H](CC(C)C)C(=O)N[C@@H](CC(C)C)C(=O)N[C@@H](C)C(=O)N[C@@H](CC(=O)O)C(=O)N[C@@H](CCCCN)C(=O)N[C@@H](CCCNC(=N)N)C(=O)N1CCC[C@H]1C(=O)N[C@@H](C)C(=O)N[C@@H](CCCNC(=N)N)C(=O)N[C@@H](CC(=O)O)C(=O)N[C@@H](Cc1ccc(O)cc1)C(=O)N[C@@H](CC(N)=O)C(=O)N[C@@H](CCCNC(=N)N)C(=O)N[C@@H](CCCCN)C(N)=O)C(C)C` [PEP27-2] (H-MWKWFHNVLSWGWLLADKRPARDYNRK-NH2), the “decrease in S. aureus cell viability” value (S. aureus ATCC 25923) was 97.48%, the “MIC range over the strains of Table 7” value [2] was 2 to 4 µM and the Minimal inhibitory concentration (S. aureus ATCC29213) was 2 µM (≈ 6.95 µg/mL). The Minimal inhibitory concentration (S. aureus ATCC25923) was 2 µM (≈ 6.95 µg/mL), the Minimal inhibitory concentration (S. aureus MW2) was 3 µM and 4 µM and the Minimal inhibitory concentration (P. aeruginosa ATCC27853) was 4 µM (≈ 13.9 µg/mL). The Minimal inhibitory concentration (S. aureus USA300) was 2 µM (≈ 6.95 µg/mL), the Minimal inhibitory concentration (E. coli ATCC25922) was 4 µM (≈ 13.9 µg/mL) and the Minimal inhibitory concentration (E. coli CCARM1229) was 4 µM (≈ 13.9 µg/mL).
